From PubChem BioAssay AID248 (DTP/NCI, 2004)
Values joined by “and” are separate entries in the source; they are usually repeats but may differ in a detail not shown here. Equal values may be shown once. Inconclusive results and toxic doses are left out. Rule as the data show it: active = T/C of 150% or more; inactive = T/C below 125%.

System: L1210 leukemia ip in BDF1 mice, survival T/C
Experiment: NCI In Vivo Anticancer Drug Screen. Data for tumor model L1210 Leukemia (intraperitoneal) in B6D2F1 (BDF1) mice
Conditions: endpoint: mean survival time, higher = longer survival
Outline: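 Ratio derived from survival: compound-dosed mice over vehicle-dosed mice, all bearing a transplantable tumor.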

Measured: T/C

Clc1ncnc2nc[nH]c12
inactive: dose: 7.5 mg/kg/injection, schedule: Q01DX010 (ip), vehicle: saline 93 % of control and 96 % of control | dose: 9.37 mg/kg/injection, schedule: Q03HX008 (ip), vehicle: other 103 % of control | dose: 9.37 mg/kg/injection, schedule: Q03HX016 (ip), vehicle: other 102 % of control | dose: 9.37 mg/kg/injection, schedule: Q03HX024 (ip), vehicle: other 112 % of control | dose: 12.5 mg/kg/injection, schedule: Q03HX016 (ip), vehicle: other 105 % of control | dose: 12.5 mg/kg/injection, schedule: Q03HX024 (ip), vehicle: other 104 % of control | dose: 15.0 mg/kg/injection, schedule: Q01DX010 (ip), vehicle: saline 93 % of control and 105 % of control | dose: 18.75 mg/kg/injection, schedule: Q03HX008 (ip), vehicle: other 111 % of control | dose: 18.75 mg/kg/injection, schedule: Q03HX016 (ip), vehicle: other 113 % of control | dose: 18.75 mg/kg/injection, schedule: Q03HX024 (ip), vehicle: other 110 % of control | dose: 25.0 mg/kg/injection, schedule: Q01DX006 (iv), vehicle: other 108 % of control | dose: 25.0 mg/kg/injection, schedule: Q03HX016 (ip), vehicle: other 112 % of control | dose: 25.0 mg/kg/injection, schedule: Q03HX024 (ip), vehicle: other 114 % of control | dose: 30.0 mg/kg/injection, schedule: Q01DX010 (ip), vehicle: saline 104 % of control and 107 % of control | dose: 50.0 mg/kg/injection, schedule: Q01DX001 (iv), vehicle: other 98 % of control | dose: 50.0 mg/kg/injection, schedule: Q01DX005 (ip), vehicle: other 103 % of control | dose: 50.0 mg/kg/injection, schedule: Q01DX006 (iv), vehicle: other 108 % of control | dose: 50.0 mg/kg/injection, schedule: Q01DX009 (ip), vehicle: other 106 % of control and 109 % of control | dose: 50.0 mg/kg/injection, schedule: Q01DX009 (oral), vehicle: other 112 % of control | dose: 50.0 mg/kg/injection, schedule: Q01DX009 (sc), vehicle: other 114 % of control | dose: 50.0 mg/kg/injection, schedule: Q01DX Z (ip), vehicle: carboxymethylcellulose (CMC) 110 % of control | dose: 60.0 mg/kg/injection, schedule: Q01DX010 (ip), vehicle: saline 101 % of control and 103 % of control | dose: 75.0 mg/kg/injection, schedule: Q01DX001 (sc), vehicle: other 106 % of control | dose: 75.0 mg/kg/injection, schedule: Q04DX003 (ip), vehicle: other 106 % of control | dose: 75.0 mg/kg/injection, schedule: Q08DX002 (ip), vehicle: other 103 % of control | dose: 100.0 mg/kg/injection, schedule: Q01DX001 (iv), vehicle: other 101 % of control | dose: 100.0 mg/kg/injection, schedule: Q01DX001 (oral), vehicle: other 103 % of control | dose: 100.0 mg/kg/injection, schedule: Q01DX005 (ip), vehicle: other 118 % of control | dose: 100.0 mg/kg/injection, schedule: Q01DX006 (iv), vehicle: other 113 % of control | dose: 100.0 mg/kg/injection, schedule: Q01DX009 (ip), vehicle: other 121 % of control | dose: 100.0 mg/kg/injection, schedule: Q04DX003 (ip), vehicle: other 115 % of control | dose: 100.0 mg/kg/injection, schedule: Q08DX002 (ip), vehicle: other 101 % of control | dose: 150.0 mg/kg/injection, schedule: Q01DX001 (sc), vehicle: other 113 % of control | dose: 150.0 mg/kg/injection, schedule: Q04DX003 (ip), vehicle: other 114 % of control | dose: 150.0 mg/kg/injection, schedule: Q08DX002 (ip), vehicle: other 104 % of control | dose: 200.0 mg/kg/injection, schedule: Q01DX001 (iv), vehicle: other 106 % of control | dose: 200.0 mg/kg/injection, schedule: Q01DX001 (oral), vehicle: other 110 % of control | dose: 200.0 mg/kg/injection, schedule: Q04DX003 (ip), vehicle: other 109 % of control | dose: 200.0 mg/kg/injection, schedule: Q08DX002 (ip), vehicle: other 105 % of control | dose: 300.0 mg/kg/injection, schedule: Q01DX001 (sc), vehicle: other 113 % of control | dose: 300.0 mg/kg/injection, schedule: Q04DX003 (ip), vehicle: other 113 % of control | dose: 300.0 mg/kg/injection, schedule: Q08DX002 (ip), vehicle: other 105 % of control | dose: 360.0 mg/kg/injection, schedule: Q01DX015 (ip), vehicle: gum acacia 110 % of control | dose: 400.0 mg/kg/injection, schedule: Q01DX015 (ip), vehicle: other 105 % of control | dose: 400.0 mg/kg/injection, schedule: Q04DX003 (ip), vehicle: other 115 % of control | dose: 400.0 mg/kg/injection, schedule: Q08DX002 (ip), vehicle: other 103 % of control | dose: 490.0 mg/kg/injection, schedule: Q01DX015 (ip), vehicle: gum acacia 90 % of control | dose: 800.0 mg/kg/injection, schedule: Q04DX003 (ip), vehicle: other 114 % of control
active: dose: 37.5 mg/kg/injection, schedule: Q03HX024 (ip), vehicle: other 160 % of control | dose: 75.0 mg/kg/injection, schedule: Q03HX016 (ip), vehicle: other 163 % of control | dose: 75.0 mg/kg/injection, schedule: Q03HX024 (ip), vehicle: other 189 % of control | dose: 100.0 mg/kg/injection, schedule: Q01DX Z (ip), vehicle: carboxymethylcellulose (CMC) 156 % of control | dose: 100.0 mg/kg/injection, schedule: Q03HX016 (ip), vehicle: other 163 % of control | dose: 100.0 mg/kg/injection, schedule: Q03HX024 (ip), vehicle: other 150 % of control | dose: 146.0 mg/kg/injection, schedule: Q01DX015 (ip), vehicle: gum acacia 152 % of control | dose: 200.0 mg/kg/injection, schedule: Q01DX009 (oral), vehicle: other 152 % of control and 160 % of control | dose: 218.0 mg/kg/injection, schedule: Q01DX015 (ip), vehicle: gum acacia 150 % of control | dose: 327.0 mg/kg/injection, schedule: Q01DX015 (ip), vehicle: gum acacia 152 % of control | dose: 400.0 mg/kg/injection, schedule: Q01DX009 (oral), vehicle: other 158 % of control

CCC(CC)NC(CC)COC(=O)c1ccc(N)cc1 (stereo not drawn)
inactive: dose: 75.0 mg/kg/injection, schedule: Q01DX001 (ip), vehicle: other 97 % of control | dose: 150.0 mg/kg/injection, schedule: Q01DX001 (ip), vehicle: other 107 % of control

CC(=O)c1ccc(C(=O)NCCCc2c(-c3ccccc3)nc(N)[nH]c2=O)cc1
inactive: dose: 100.0 mg/kg/injection, schedule: Q01DX001 (ip), vehicle: Klucel (hydroxypropylcellulose) (HPC) 94 % of control | dose: 200.0 mg/kg/injection, schedule: Q01DX001 (ip), vehicle: Klucel (hydroxypropylcellulose) (HPC) 94 % of control | dose: 400.0 mg/kg/injection, schedule: Q01DX001 (ip), vehicle: Klucel (hydroxypropylcellulose) (HPC) 96 % of control

CN(CCO)CC1COc2ccccc2O1 (stereo not drawn)
inactive: dose: 50.0 mg/kg/injection, schedule: Q01DX001 (ip), vehicle: saline 97 % of control | dose: 100.0 mg/kg/injection, schedule: Q01DX001 (ip), vehicle: saline 105 % of control | dose: 200.0 mg/kg/injection, schedule: Q01DX001 (ip), vehicle: saline 88 % of control

Cc1cc(C)c(NS(=O)(=O)c2ccc(Cl)cc2)cc1C
inactive: dose: 100.0 mg/kg/injection, schedule: Q01DX009 (ip), vehicle: Klucel (hydroxypropylcellulose) (HPC) 108 % of control | dose: 200.0 mg/kg/injection, schedule: Q01DX009 (ip), vehicle: Klucel (hydroxypropylcellulose) (HPC) 106 % of control | dose: 400.0 mg/kg/injection, schedule: Q01DX009 (ip), vehicle: Klucel (hydroxypropylcellulose) (HPC) 100 % of control

CC1=NN(c2ccccc2)C(=O)C1N=Nc1ccc(S(=O)(=O)Nc2cc(C)nc(C)n2)cc1 (stereo not drawn)
inactive: dose: 100.0 mg/kg/injection, schedule: Q01DX001 (ip), vehicle: carboxymethylcellulose (CMC) 98 % of control | dose: 200.0 mg/kg/injection, schedule: Q01DX001 (ip), vehicle: carboxymethylcellulose (CMC) 98 % of control | dose: 400.0 mg/kg/injection, schedule: Q01DX001 (ip), vehicle: carboxymethylcellulose (CMC) 95 % of control

CC[n+]1cccc(C#N)c1
inactive: dose: 75.0 mg/kg/injection, schedule: Q01DX001 (ip), vehicle: saline 98 % of control | dose: 75.0 mg/kg/injection, schedule: Q04DX003 (ip), vehicle: saline 93 % of control | dose: 150.0 mg/kg/injection, schedule: Q01DX001 (ip), vehicle: saline 103 % of control | dose: 150.0 mg/kg/injection, schedule: Q04DX003 (ip), vehicle: saline 98 % of control | dose: 300.0 mg/kg/injection, schedule: Q01DX001 (ip), vehicle: saline 101 % of control
